System: MV-4-11 cells
Test: Gene expression microarray analysis (Affymetrix PrimeView) and GSEA
Type: cell-based, human
Set-up: RFU PODN (11730768_x_at) / Fold change /veh PODN (11730768_x_at) / RFU LINC00158 (11744669_a_at) / Fold change /veh LINC00158 (11744669_a_at) / RFU DUSP10 (11751237_a_at) / Fold change /veh DUSP10 (11751237_a_at) / RFU ID3 (11757404_x_at) / Fold change /veh ID3 (11757404_x_at) / RFU PLEKHG5 (11737974_s_at) / Fold change /veh PLEKHG5 (11737974_s_at) / RFU LRRC4B (11730491_at) / Fold change /veh LRRC4B (11730491_at) / RFU GIMAP4 (11747438_a_at) / Fold change /veh GIMAP4 (11747438_a_at) / RFU KRT8 (11758183_x_at) / Fold change /veh KRT8 (11758183_x_at) / RFU CNN1 (11734310_a_at) / Fold change /veh CNN1 (11734310_a_at) / RFU VPS37D (11726825_at) / Fold change /veh VPS37D (11726825_at) / RFU C10orf10 (11716522_x_at) / Fold change /veh C10orf10 (11716522_x_at) / RFU KIR2DL2 /// KIR2DL4 /// KIR2DL5A /// KIR2DL5B /// KIR2DS1 /// KIR2DS2 /// KIR2DS3 /// KIR2DS4 /// KIR3DL3 /// KIR3DL3 /// KIR3DS1 (11738374_at) / Fold change /veh KIR2DL2 /// KIR2DL4 /// KIR2DL5A /// KIR2DL5B /// KIR2DS1 /// KIR2DS2 /// KIR2DS3 /// KIR2DS4 /// KIR3DL3 /// KIR3DL3 /// KIR3DS1 (11738374_at) / RFU C1QL1 (11718748_at) / Fold change /veh C1QL1 (11718748_at) / RFU TMPRSS4 (11747572_a_at) / Fold change /veh TMPRSS4 (11747572_a_at) / RFU HAMP (11756126_x_at) / Fold change /veh HAMP (11756126_x_at) / RFU RNFT2 (11725882_a_at) / Fold change /veh RNFT2 (11725882_a_at) / RFU NR4A2 (11747474_a_at) / Fold change /veh NR4A2 (11747474_a_at) / RFU ABCC12 (11746883_a_at) / Fold change /veh ABCC12 (11746883_a_at) / RFU TMEM136 (11760407_x_at) / Fold change /veh TMEM136 (11760407_x_at) / RFU CLDN22 /// WWC2 (11732394_at) / Fold change /veh CLDN22 /// WWC2 (11732394_at) / RFU HLA-DPB1 (11760878_x_at) / Fold change /veh HLA-DPB1 (11760878_x_at) / RFU SPINT1 (11716480_a_at) / Fold change /veh SPINT1 (11716480_a_at) / RFU GAP43 (11754022_s_at) / Fold change /veh GAP43 (11754022_s_at) / RFU A4GNT (11735810_at) / Fold change /veh A4GNT (11735810_at) / RFU PRB3 (11715151_x_at) / Fold change /veh PRB3 (11715151_x_at) / RFU TUBB4B (11761932_at) / Fold change /veh TUBB4B (11761932_at) / RFU CAPN14 (11732068_a_at) / Fold change /veh CAPN14 (11732068_a_at) / RFU TMCC2 (11721928_a_at) / Fold change /veh TMCC2 (11721928_a_at) / RFU IRGQ (11745062_a_at) / Fold change /veh IRGQ (11745062_a_at) / RFU FAM174B (11720279_a_at) / Fold change /veh FAM174B (11720279_a_at) / RFU TMPRSS4 (11748680_a_at) / Fold change /veh TMPRSS4 (11748680_a_at) / RFU FAM212B (11763350_a_at) / Fold change /veh FAM212B (11763350_a_at) / RFU PLEKHG5 (11743358_a_at) / Fold change /veh PLEKHG5 (11743358_a_at) / RFU ZSCAN30 (11745921_a_at) / Fold change /veh ZSCAN30 (11745921_a_at) / RFU CMKLR1 (11741424_a_at) / Fold change /veh CMKLR1 (11741424_a_at) / RFU LOC101060620 /// MAPK8IP1 (11723275_at) / Fold change /veh LOC101060620 /// MAPK8IP1 (11723275_at) / RFU SPTSSB (11747773_x_at) / Fold change /veh SPTSSB (11747773_x_at) / RFU PRSS12 (11739890_at) / Fold change /veh PRSS12 (11739890_at) / RFU BIN1 (11741810_x_at) / Fold change /veh BIN1 (11741810_x_at) / RFU WNT11 (11732464_a_at) / Fold change /veh WNT11 (11732464_a_at) / RFU C10orf10 (11716521_a_at) / Fold change /veh C10orf10 (11716521_a_at) / RFU C5orf56 (11738089_at) / Fold change /veh C5orf56 (11738089_at) / RFU CYB561 (11721691_x_at) / Fold change /veh CYB561 (11721691_x_at) / RFU ANKRD19P (11752326_a_at) / Fold change /veh ANKRD19P (11752326_a_at) / RFU OR2T12 /// OR2T33 /// OR2T8 (11738714_s_at) / Fold change /veh OR2T12 /// OR2T33 /// OR2T8 (11738714_s_at) / RFU VCAN (11748164_a_at) / Fold change /veh VCAN (11748164_a_at) / RFU JSRP1 (11732532_at) / Fold change /veh JSRP1 (11732532_at) / RFU KRTAP10-11 (11738290_x_at) / Fold change /veh KRTAP10-11 (11738290_x_at) / RFU MYO3A (11730013_a_at) / Fold change /veh MYO3A (11730013_a_at) / RFU EBF3 (11725865_a_at) / Fold change /veh EBF3 (11725865_a_at) / RFU CAMK2N1 (11719241_x_at) / Fold change /veh CAMK2N1 (11719241_x_at) / RFU C5orf56 (11738088_a_at) / Fold change /veh C5orf56 (11738088_a_at) / RFU OLFML3 (11715873_a_at) / Fold change /veh OLFML3 (11715873_a_at) / RFU LOC100653217 /// NTM (11731650_a_at) / Fold change /veh LOC100653217 /// NTM (11731650_a_at) / RFU MAPK11 (11762145_a_at) / Fold change /veh MAPK11 (11762145_a_at) / RFU FIZ1 (11724087_x_at) / Fold change /veh FIZ1 (11724087_x_at) / RFU OASL (11726364_x_at) / Fold change /veh OASL (11726364_x_at) / RFU SOX15 (11748057_x_at) / Fold change /veh SOX15 (11748057_x_at) / RFU CD79A (11719716_a_at) / Fold change /veh CD79A (11719716_a_at) / RFU HIST1H1D (11736915_at) / Fold change /veh HIST1H1D (11736915_at) / RFU CASKIN2 (11723855_a_at) / Fold change /veh CASKIN2 (11723855_a_at) / RFU LOC730098 (11760151_x_at) / Fold change /veh LOC730098 (11760151_x_at) / RFU OR4N2 (11742367_at) / Fold change /veh OR4N2 (11742367_at) / RFU PRRT2 (11749266_a_at) / Fold change /veh PRRT2 (11749266_a_at) / RFU SNX32 (11753110_a_at) / Fold change /veh SNX32 (11753110_a_at) / RFU CDHR5 (11726645_a_at) / Fold change /veh CDHR5 (11726645_a_at) / RFU RCAN1 (11760418_a_at) / Fold change /veh RCAN1 (11760418_a_at) / RFU FAM167A (11723789_a_at) / Fold change /veh FAM167A (11723789_a_at) / RFU FAM26E (11764081_at) / Fold change /veh FAM26E (11764081_at) / RFU ISYNA1 (11749810_s_at) / Fold change /veh ISYNA1 (11749810_s_at) / RFU ACY1 (11761880_at) / Fold change /veh ACY1 (11761880_at) / RFU 11764098_at / Fold change /veh 11764098_at / RFU SAMD14 (11745864_x_at) / Fold change /veh SAMD14 (11745864_x_at) / RFU NPB (11741838_a_at) / Fold change /veh NPB (11741838_a_at) / RFU TMPRSS6 (11731388_a_at) / Fold change /veh TMPRSS6 (11731388_a_at) / RFU KRTAP10-2 (11738614_at) / Fold change /veh KRTAP10-2 (11738614_at) / RFU ARHGAP8 /// PRR5-ARHGAP8 (11727945_x_at) / Fold change /veh ARHGAP8 /// PRR5-ARHGAP8 (11727945_x_at) / RFU KRTAP5-7 /// NADSYN1 (11734609_at) / Fold change /veh KRTAP5-7 /// NADSYN1 (11734609_at) / RFU RASL12 (11751679_a_at) / Fold change /veh RASL12 (11751679_a_at) / RFU CDKN2B (11736163_a_at) / Fold change /veh CDKN2B (11736163_a_at) / RFU PRF1 (11729649_at) / Fold change /veh PRF1 (11729649_at) / RFU, ZNF638 /// ZNF638-IT1 / Fold change vs veh, ZNF638 /// ZNF638-IT1 / RFU, PANK3 / Fold change vs veh, PANK3 / RFU, SH3YL1 / Fold change vs veh, SH3YL1 / RFU, ZEB2 / Fold change vs veh, ZEB2 / RFU, NRIP1 / Fold change vs veh, NRIP1 / RFU, PTTG1IP / Fold change vs veh, PTTG1IP / RFU, CAPN2 / Fold change vs veh, CAPN2 / RFU, MED14 / Fold change vs veh, MED14 / RFU, SNORA58 / Fold change vs veh, SNORA58 / RFU, C1orf63 / Fold change vs veh, C1orf63 / RFU, LRRFIP1 / Fold change vs veh, LRRFIP1 / RFU, NDUFAF7 / Fold change vs veh, NDUFAF7 / RFU, SLC12A2 / Fold change vs veh, SLC12A2 / RFU, IBTK / Fold change vs veh, IBTK / RFU, ESF1 / Fold change vs veh, ESF1 / Fold change vs veh, TMEM50B / RFU, TAOK1 / Fold change vs veh, TAOK1 / RFU, ACBD3 / Fold change vs veh, ACBD3 / RFU, TMA16 / Fold change vs veh, TMA16 / RFU, RWDD3 / Fold change vs veh, RWDD3 / RFU, BCAT1 / Fold change vs veh, BCAT1 / RFU, EDEM3 / Fold change vs veh, EDEM3 / RFU, TMEM33 / Fold change vs veh, TMEM33 / RFU, WDR75 / Fold change vs veh, WDR75 / RFU, AHCTF1 / Fold change vs veh, AHCTF1 / RFU, TFRC / Fold change vs veh, TFRC / RFU, ZDHHC17 / Fold change vs veh, ZDHHC17 / RFU, NOM1 / Fold change vs veh, NOM1 / RFU, ARL8B / Fold change vs veh, ARL8B / RFU, ZBTB11 / Fold change vs veh, ZBTB11 / RFU, TAMM41 / Fold change vs veh, TAMM41 / RFU, KIAA1704 /// LOC100996395 / Fold change vs veh, KIAA1704 /// LOC100996395 / RFU, ING1 / Fold change vs veh, ING1 / RFU, TRMT61B / Fold change vs veh, TRMT61B / RFU, FUBP3 / Fold change vs veh, FUBP3 / RFU, TP53 / Fold change vs veh, TP53 / RFU, TNKS2 / Fold change vs veh, TNKS2 / RFU, ZFP14 / Fold change vs veh, ZFP14 / RFU, ACTR2 / Fold change vs veh, ACTR2 / RFU, PPP3R1 / Fold change vs veh, PPP3R1 / RFU, PIK3R1 / Fold change vs veh, PIK3R1 / RFU, HNRNPA1 / Fold change vs veh, HNRNPA1 / RFU, RNF170 / Fold change vs veh, RNF170 / RFU, ZNF28 / Fold change vs veh, ZNF28 / RFU, RNGTT / Fold change vs veh, RNGTT / RFU, OGT / Fold change vs veh, OGT / RFU, BRD1 / Fold change vs veh, BRD1 / RFU, MARS / Fold change vs veh, MARS / RFU, ZNF655 / Fold change vs veh, ZNF655 / RFU, FAHD1 / Fold change vs veh, FAHD1 / RFU, BDP1 / Fold change vs veh, BDP1 / RFU, LRRCC1 / Fold change vs veh, LRRCC1 / RFU, ARID1A / Fold change vs veh, ARID1A / RFU, ZNF146 / Fold change vs veh, ZNF146 / RFU, ZNF330 / Fold change vs veh, ZNF330 / RFU, GPN3 / Fold change vs veh, GPN3 / RFU, C9orf123 / Fold change vs veh, C9orf123 / RFU, N4BP2L2 / Fold change vs veh, N4BP2L2 / RFU, ARFIP1 / Fold change vs veh, ARFIP1 / RFU, FAM179B / Fold change vs veh, FAM179B / RFU, BCL10 / Fold change vs veh, BCL10 / RFU, UHRF1BP1L / Fold change vs veh, UHRF1BP1L / RFU, BET1 / Fold change vs veh, BET1 / RFU, CNOT2 / Fold change vs veh, CNOT2 / RFU, ZNF268 / Fold change vs veh, ZNF268 / Fold change vs veh, ZNF507 / RFU, DGCR2 / Fold change vs veh, DGCR2 / RFU, WDSUB1 / Fold change vs veh, WDSUB1 / Fold change vs veh, HSP90B1 /// MIR3652 / RFU, ADSS / Fold change vs veh, ADSS / RFU, GK / Fold change vs veh, GK / RFU, ZNF148 / Fold change vs veh, ZNF148 / RFU, TAF9 / Fold change vs veh, TAF9 / RFU, SLC1A5 / Fold change vs veh, SLC1A5 / RFU, SLMO2 / Fold change vs veh, SLMO2 / RFU, ABCC4 / Fold change vs veh, ABCC4 / RFU, LOC101060439 /// RAP1B / Fold change vs veh, LOC101060439 /// RAP1B / RFU, RFX7 / Fold change vs veh, RFX7 / RFU, GTPBP10 / Fold change vs veh, GTPBP10 / RFU, CNEP1R1 / Fold change vs veh, CNEP1R1 / RFU, BIVM-ERCC5 /// ERCC5 / Fold change vs veh, BIVM-ERCC5 /// ERCC5 / RFU, ILF3 / Fold change vs veh, ILF3 / RFU 11762660_at / Fold change /veh 11762660_at / RFU VCAN (11757783_s_at) / Fold change /veh VCAN (11757783_s_at) / RFU DDX43 (11728927_at) / Fold change /veh DDX43 (11728927_at) / RFU KRT8 (11758188_x_at) / Fold change /veh KRT8 (11758188_x_at) / RFU NKD1 (11759106_at) / Fold change /veh NKD1 (11759106_at) / RFU SRD5A1 (11742802_a_at) / Fold change /veh SRD5A1 (11742802_a_at) / RFU TPSAB1 /// TPSB2 (11721975_s_at) / Fold change /veh TPSAB1 /// TPSB2 (11721975_s_at) / RFU GSTM3 (11746129_a_at) / Fold change /veh GSTM3 (11746129_a_at) / RFU IL23R (11737362_x_at) / Fold change /veh IL23R (11737362_x_at) / RFU TMEM51 (11727254_a_at) / Fold change /veh TMEM51 (11727254_a_at) / RFU PIWIL2 (11732686_x_at) / Fold change /veh PIWIL2 (11732686_x_at) / RFU ORM1 (11744905_x_at) / Fold change /veh ORM1 (11744905_x_at) / RFU CCDC152 (11743942_at) / Fold change /veh CCDC152 (11743942_at) / RFU ECM1 (11717891_a_at) / Fold change /veh ECM1 (11717891_a_at) / RFU IL23R (11748794_a_at) / Fold change /veh IL23R (11748794_a_at) / RFU TNFAIP8L3 (11732012_x_at) / Fold change /veh TNFAIP8L3 (11732012_x_at) / RFU MBOAT4 (11741988_at) / Fold change /veh MBOAT4 (11741988_at) / RFU 11764193_at / Fold change /veh 11764193_at / RFU TMEM53 (11763286_at) / Fold change /veh TMEM53 (11763286_at) / RFU MAGEB2 (11727129_at) / Fold change /veh MAGEB2 (11727129_at) / RFU TMEM200A (11744735_a_at) / Fold change /veh TMEM200A (11744735_a_at) / RFU CCDC152 (11751479_a_at) / Fold change /veh CCDC152 (11751479_a_at) / RFU FAM211A (11726209_a_at) / Fold change /veh FAM211A (11726209_a_at) / RFU RGS16 (11746705_a_at) / Fold change /veh RGS16 (11746705_a_at) / RFU VCAN (11755009_s_at) / Fold change /veh VCAN (11755009_s_at) / RFU RHOB (11743442_s_at) / Fold change /veh RHOB (11743442_s_at) / RFU RGS16 (11720943_a_at) / Fold change /veh RGS16 (11720943_a_at) / RFU RGS16 (11720944_at) / Fold change /veh RGS16 (11720944_at) / RFU, VPS4B / Fold change vs veh, VPS4B / RFU, CREB1 / Fold change vs veh, CREB1 / RFU, DNAJC13 / Fold change vs veh, DNAJC13 / RFU, GNAQ / Fold change vs veh, GNAQ / RFU, CDK5R1 / Fold change vs veh, CDK5R1 / RFU, ZRANB3 / Fold change vs veh, ZRANB3 / RFU, CUL4A / Fold change vs veh, CUL4A / RFU, CCNY / Fold change vs veh, CCNY / RFU, UFL1 / Fold change vs veh, UFL1 / RFU, COG3 / Fold change vs veh, COG3 / RFU, DIAPH2 / Fold change vs veh, DIAPH2 / RFU, SKA2 / Fold change vs veh, SKA2 / RFU, AFF3 / Fold change vs veh, AFF3 / RFU, LMF1 / Fold change vs veh, LMF1 / RFU, IPO11 / Fold change vs veh, IPO11 / RFU, DFFB / Fold change vs veh, DFFB / RFU, FOXP1 / Fold change vs veh, FOXP1 / RFU, CARD8 / Fold change vs veh, CARD8 / RFU, STRN3 / Fold change vs veh, STRN3 / RFU, ADK / Fold change vs veh, ADK / RFU, RASSF2 / Fold change vs veh, RASSF2 / RFU, WIPF1 / Fold change vs veh, WIPF1 / RFU, LARP1B / Fold change vs veh, LARP1B / RFU, RASA1 / Fold change vs veh, RASA1 / RFU, RB1 / Fold change vs veh, RB1 / RFU, PPFIA1 / Fold change vs veh, PPFIA1 / RFU, MAT2A / Fold change vs veh, MAT2A / RFU, CCT5 / Fold change vs veh, CCT5 / RFU, WDR92 / Fold change vs veh, WDR92 / RFU, CUX1 / Fold change vs veh, CUX1 / RFU, TTC7A / Fold change vs veh, TTC7A / RFU, TMEM135 / Fold change vs veh, TMEM135 / RFU, DEPTOR / Fold change vs veh, DEPTOR / RFU, CPM / Fold change vs veh, CPM / RFU, DNAJB6 / Fold change vs veh, DNAJB6 / RFU, CACNA2D3 / Fold change vs veh, CACNA2D3 / RFU, DTX4 / Fold change vs veh, DTX4 / RFU, TFCP2 / Fold change vs veh, TFCP2 / RFU, GMCL1 /// GMCL1P1 / Fold change vs veh, GMCL1 /// GMCL1P1 / RFU, AEBP2 / Fold change vs veh, AEBP2 / RFU, SNHG1 /// SNORD22 /// SNORD25 /// SNORD26 /// SNORD27 /// SNORD28 /// SNORD29 /// SNORD31 / Fold change vs veh, SNHG1 /// SNORD22 /// SNORD25 /// SNORD26 /// SNORD27 /// SNORD28 /// SNORD29 /// SNORD31 / Fold change (Aza/veh), C12orf56 (ProbeSet 11735607_a_at) / Fold change (ACY-1035/veh), C12orf56 (ProbeSet 11735607_a_at) / Fold change (Aza/veh), FGFR1OP (ProbeSet 11751329_s_at) / Fold change (ACY-1035/veh), FGFR1OP (ProbeSet 11751329_s_at) / Fold change (Aza/veh), VPS36 (ProbeSet 11739960_a_at) / Fold change (ACY-1035/veh), VPS36 (ProbeSet 11739960_a_at) / RFU SYPL1 (11715823_x_at) / Fold change /veh SYPL1 (11715823_x_at) / RFU IGFBP7 (11715501_s_at) / Fold change /veh IGFBP7 (11715501_s_at) / RFU REEP3 (11722064_at) / Fold change /veh REEP3 (11722064_at) / RFU IGLL1 (11728026_x_at) / Fold change /veh IGLL1 (11728026_x_at): dose or concentration left out as unconfirmed
Settings: ProbeSet 11725787_a_at; LIST B

## Nc1ncn([C@@H]2O[C@H](CO)[C@@H](O)[C@H]2O)c(=O)n1 [azacitidine]
  Fold change vs veh, TMA16: 0.94

Source: publication PMC5218480 (PLoS ONE, 2017)
